# Measured values from ChEMBL document CHEMBL1128103, “Thromboxane modulating agents. 1. Design of 1-[(arylsulfonyl)amino] alkylindole derivatives as dual thromboxane synthase inhibitor/thromboxane receptor antagonists” (Bioorg Med Chem Lett, 1995).
# What was measured:
# Thromboxane A2 receptor [1] = target: T1, Thromboxane A2 receptor (Rattus norvegicus, UniProt P34978); assay: Compound was tested in vitro for Thromboxane A2 receptor antagonism by inhibiting contraction of rat aorta induced by the stable thromboxane agonist U-46,619; assay type: functional, tissue-based; details: read-out: pA2 (converted)
# T1 sequence (P34978 whole entry): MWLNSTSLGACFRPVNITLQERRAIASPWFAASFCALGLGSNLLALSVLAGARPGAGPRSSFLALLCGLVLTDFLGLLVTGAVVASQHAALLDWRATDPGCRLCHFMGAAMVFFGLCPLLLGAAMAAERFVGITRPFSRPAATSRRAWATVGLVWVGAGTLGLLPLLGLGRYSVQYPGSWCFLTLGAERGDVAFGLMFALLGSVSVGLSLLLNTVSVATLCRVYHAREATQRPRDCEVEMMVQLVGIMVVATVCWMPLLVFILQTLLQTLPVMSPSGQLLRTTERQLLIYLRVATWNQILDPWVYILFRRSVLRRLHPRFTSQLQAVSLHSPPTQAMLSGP
# Thromboxane-A synthase = target: T2, Thromboxane-A synthase (Homo sapiens, UniProt P24557); assay: Compound was tested for the ability to inhibit human platelets microsomal Thromboxane A2 synthase
# T2 sequence (P24557 whole entry): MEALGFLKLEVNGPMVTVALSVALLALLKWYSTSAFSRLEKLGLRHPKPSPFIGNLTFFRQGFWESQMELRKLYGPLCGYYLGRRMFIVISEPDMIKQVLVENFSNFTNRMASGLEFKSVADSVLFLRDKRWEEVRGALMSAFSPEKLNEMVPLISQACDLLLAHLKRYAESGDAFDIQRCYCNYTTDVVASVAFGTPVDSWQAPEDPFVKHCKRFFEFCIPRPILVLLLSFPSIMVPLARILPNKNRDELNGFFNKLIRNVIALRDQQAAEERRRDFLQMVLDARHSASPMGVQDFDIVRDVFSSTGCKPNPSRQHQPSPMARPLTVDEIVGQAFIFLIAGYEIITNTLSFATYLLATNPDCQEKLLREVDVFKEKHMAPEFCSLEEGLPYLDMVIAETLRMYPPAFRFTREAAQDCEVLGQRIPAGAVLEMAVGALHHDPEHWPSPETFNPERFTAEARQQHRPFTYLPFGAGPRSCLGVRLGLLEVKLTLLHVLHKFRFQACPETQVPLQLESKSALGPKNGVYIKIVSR
# Thromboxane A2 receptor [2] = target: T1, Thromboxane A2 receptor; assay: Compound was tested in vitro for thromboxane A2 receptor antagonism by inhibiting contraction of rat aorta induced by the stable thromboxane agonist U-46,619; assay type: functional, tissue-based; details: read-out: pA2 (converted)
# [3] = target: T3, Thromboxane-A synthase (Homo sapiens) (UniProt P24557); assay: Compound was tested for the ability to inhibit human platelets microsomal Thromboxane A2 synthase at 1 uM concentration
# T3 sequence (whole entry): T2 sequence (P24557 whole entry)
# Thromboxane A2 receptor [4] = target: T1, Thromboxane A2 receptor; assay: Compound was tested in vitro for Thromboxane A2 receptor antagonism by inhibiting contraction of rat aorta induced by the stable thromboxane agonist U-46,619; […]; assay type: functional, tissue-based; details: read-out: pA2 (converted)
Kb (Thromboxane A2 receptor [1]),IC50 (Thromboxane-A synthase),Kb (Thromboxane A2 receptor [2]),inhibition [3],Kb (Thromboxane A2 receptor [4]),Structure (SMILES)
2.51 nM,,,,,Cc1c(C)n(CCNS(=O)(=O)c2ccc(F)cc2)c2ccc(CCC(=O)O)cc12
,,7.59 nM,42%,,O=C(O)CCc1ccc2c(c1)c(Cc1ccncc1)cn2CCNS(=O)(=O)c1ccc(F)cc1
0.0741 nM,78 nM,,,,Cc1c(Cc2ccncc2)c2cc(CCC(=O)O)ccc2n1CCNS(=O)(=O)c1ccc(F)cc1
,20 nM,,,> 1000 nM,Cc1c(Cn2ccnc2)n(CCNS(=O)(=O)c2ccc(F)cc2)c2ccc(C(=O)O)cc12
81.3 nM,,,,,O=C(O)COc1ccc(CCNS(=O)(=O)c2ccccc2)cc1 [SULOTROBAN]
0.692 nM,61 nM,,,,Cc1c(Cc2cccnc2)c2cc(CCC(=O)O)ccc2n1CCNS(=O)(=O)c1ccc(F)cc1
,15 nM,,,> 1000 nM,Cc1c(Cn2ccnc2)n(CCCNS(=O)(=O)c2ccc(F)cc2)c2ccc(C(=O)O)cc12
1.58 nM,39 nM,,,,Cc1c(Cn2ccnc2)c2cc(CCC(=O)O)ccc2n1CCNS(=O)(=O)c1ccc(F)cc1
,22 nM,60.3 nM,,,Cc1[nH]c2ccc(CCC(=O)O)cc2c1Cc1ccncc1
,39 nM,,,> 1000 nM,Cc1c(Cn2ccnc2)n(CCCCNS(=O)(=O)c2ccc(F)cc2)c2ccc(C(=O)O)cc12

Structure (SMILES),Kb (Thromboxane A2 receptor [1]),IC50 (Thromboxane-A synthase),Kb (Thromboxane A2 receptor [2]),inhibition [3],Kb (Thromboxane A2 receptor [4])
Cc1c(Cn2ccnc2)n(CCNS(=O)(=O)c2ccc(F)cc2)c2ccc(CCC(=O)O)cc12,138 nM,135 nM,,,
